# Like-named read-outs stand apart in the source and are kept apart here.
# Assays:
# [1] = target: eeAChE (Electrophorus electricus AChE) (Electrophorus electricus, UniProt O42275); experiment: Cholinesterase inhibition assay (modified Ellman's method), eeAChE; format: biochemical; conditions: for SI eeAChE: ratio eqBChE IC50/eeAChE IC50
# Source text: (§1) Compound series A and B were initially screened for their cholinesterase activity against eeAChE (Electrophorus electricus AChE) and eqBChE (equine serum butyrylcholinesterase), using an adaptation of the Ellman’s method. […]. […] Similarly, replacing the terminal triple bond in 7l with a nitrile group reduced its activity, while replacing the O-propargyl group with an N,N-dipropargyl group in 10 enhanced the inhibition of both enzymes, particularly BChE (Table ). The installation of an additional aryl ring in 7o further improved AChE inhibition, slightly increasing selectivity toward this enzyme. […]. […]. […]. The inhibitory activity of the synthesized compounds toward eeAChE and eqBChE was evaluated spectrophotometrically through a 96-well microplate modified Ellman’s method. The solutions of both enzymes were prepared as 0.025 U/mL in phosphate buffer at pH 7, from stock solutions of 5.05 U/mL and 7.50 U/mL, respectively. The stock solutions for the target compounds (0.1 M) were prepared in dimethyl sulfoxide (DMSO). […] The reaction mixture was prepared with 100 μL of the enzyme (eeAChE or eqBChE) and 50 μL of the test compound (or DMSO/water, not exceeding 0.2% of DMSO in the wells; i.e blank samples). After 5 min of the preincubation period at 37 °C, 50 μL of ATChI or BTChI and 50 μL of DTNB were added to each well, thus initiating the enzymatic reaction. The absorbance values were measured at 415 nm, for a total of 7.5 min, at every 2.5 min, using a microplate reader (Synergy multimode reader; BioTek). […]. All experiments were performed in triplicate.
# [2] = target: T1, Aβ42 aggregation (Homo sapiens, UniProt P05067); experiment: Thioflavin S assay of Aβ42 aggregation in E. coli cells overexpressing Aβ42; format: cell-based, Escherichia coli; conditions: read-out: Aβ42 inhibition %
# T1 construct: expressed in transfected cells; host or cells: E. coli BL21 (DE3), pET vector
# Protocol: The antiaggregating profiles of both series A and B were evaluated using a fluorescence Thioflavin S (ThS) assay in cellulo, which monitors ThS fluorescence in the presence of β-sheet-rich structures, such as Aβ and tau protein aggregates. This method, based on recombinant Escherichia coli (E. coli) bacteria overexpressing insoluble aggregates, offers a simple and cost-effective approach to model aggregation processes in mammalian systems and has been validated for use in drug discovery studies. , Compounds were tested at a screening concentration of 50 μM for their ability to inhibit Aβ42 aggregation. The results, summarized in Table , reveal distinct antiaggregating profiles between series A and B, which are once again influenced by their structural differences.
# 42 Amino acid Aβ42 was cloned and overexpressed in E. coli BL21 (DE3) competent cells using the pET vector harboring the DNA sequence of Aβ42. Due to the addition of the initiation codon ATG preceding genes, the resulting overexpressed peptide contained an additional methionine residue at its N-terminus. For the preparation of overnight cultures, a colony of BL21 (DE3) cells carrying the plasmid for expression was inoculated in 10 mL of M9 minimal medium supplemented with 50 μg mL^–1 kanamycin at 37 °C. Subsequently, a 1:500 dilution of the overnight culture was added to fresh M9 minimal medium containing 50 μg mL^–1 kanamycin and 25 μM ThS. The bacterial culture was then incubated at 37 °C with agitation at 250 rpm. Upon reaching an OD600 of 0.6, 980 μL of the culture was transferred into 1.5 mL Eppendorf tubes, each containing 10 μL of the compound to be tested dissolved in DMSO and 10 μL of 100 mM isopropyl 1-thio-β-D-galactopyranoside (IPTG) or, alternatively, 10 μL of water for the noninduced controls. The final compound concentration was adjusted to […]. The samples were allowed to grow overnight at 37 °C with agitation at 1400 rpm using a Thermomixer (Eppendorf). Negative controls, representing maximum amyloid presence, utilized free DMSO.
# ThS (T1892) and all other chemical reagents were purchased from Sigma (St. Louis, MO). Stock solutions of ThS (250 μM) were prepared using doubly distilled water purified via a Milli-Q system (Millipore). For the fluorescence assay, ThS spectra were recorded utilizing an AmincoBowman series 2 luminescence spectrophotometer (Aminco-Bowman AB2, SLM Aminco, Rochester, NY) within the range of 460 to 600 nm at a temperature of 25 °C. The excitation wavelength employed was 445 nm, with slit widths set at 4 nm. The emission at 485 nm, corresponding to the ThS peak observed in the presence of amyloids, was recorded. To standardize ThS fluorescence relative to bacterial concentration in both in vitro and cell-based assays, the OD600 was determined using a Shimadzu UV-2401 PC UV–vis spectrophotometer. Fluorescence normalization was executed by setting the ThS fluorescence of bacterial cells expressing the peptide or protein in the absence of the drug as 100%, while that of bacterial cells not expressing the peptide or protein was established as 0%.
# [3] = target: T2, eqBChE (equine serum butyrylcholinesterase) (Equus caballus, UniProt P81908); experiment: Cholinesterase inhibition assay (modified Ellman's method), eqBChE; format: biochemical
# T2 construct: eqBChE (equine serum butyrylcholinesterase); from tissue; host or cells: equine serum
# Source text: as §1
# [4] = in vitro; conditions: PAMPA, pH 7.4
# Protocol: To assess BBB permeability, a parallel artificial membrane permeability assay (PAMPA)-BBB was performed, which predicts passive BBB permeability using a brain lipid porcine membrane.
# The prediction of the brain penetration was evaluated using a PAMPA-BBB. […] Next, 100 μL of these stock solutions were added to a solution of 1400 μL of EtOH and 3500 μL of PBS at pH 7.4, to reach 30% of EtOH concentration in the experiment. These solutions were filtered, using Filter PDVF membrane units (diameter 30 mm, pore size 0.45 μm, from Symta). After this, the acceptor 96-well microplate (Multiscreen, catalogue no. MAMCS9610, from Millipore) was filled with 180 μL of PBS/EtOH (70/30). […] After 5 min, 180 μL of each compound solution was added. 1–2 mg of each selected compound was dissolved in 1500 μL of EtOH and 3500 μL of PBS at pH 7.4, filtered, and then added to the donor 96-well plate to determine their ability to cross the brain barrier. After this, the donor plate was carefully put on the acceptor plate to form a “sandwich” and incubated for 2.5 h at 25 °C. During this period, the compounds diffused from the donor plate through the brain lipid membrane into the acceptor plate. Afterward, the donor plate was removed. A 96-well plate UV reader (Thermoscientific, Multiskan spectrum) was used to determine the concentration of compounds and commercial drugs in the acceptor and donor wells. Every sample was analyzed at three to five wavelengths, in three wells, and in two independent runs. […] Ten quality control compounds (previously mentioned) of known BBB permeability were included in each experiment to validate the analysis set.
# [5] = mean ± SEM, n = 3, n.a = nonactive, IC50 determined only if inhibition higher than 50% at 20 μM
# eeAChE (Electrophorus electricus AChE), sequence (O42275 24-633): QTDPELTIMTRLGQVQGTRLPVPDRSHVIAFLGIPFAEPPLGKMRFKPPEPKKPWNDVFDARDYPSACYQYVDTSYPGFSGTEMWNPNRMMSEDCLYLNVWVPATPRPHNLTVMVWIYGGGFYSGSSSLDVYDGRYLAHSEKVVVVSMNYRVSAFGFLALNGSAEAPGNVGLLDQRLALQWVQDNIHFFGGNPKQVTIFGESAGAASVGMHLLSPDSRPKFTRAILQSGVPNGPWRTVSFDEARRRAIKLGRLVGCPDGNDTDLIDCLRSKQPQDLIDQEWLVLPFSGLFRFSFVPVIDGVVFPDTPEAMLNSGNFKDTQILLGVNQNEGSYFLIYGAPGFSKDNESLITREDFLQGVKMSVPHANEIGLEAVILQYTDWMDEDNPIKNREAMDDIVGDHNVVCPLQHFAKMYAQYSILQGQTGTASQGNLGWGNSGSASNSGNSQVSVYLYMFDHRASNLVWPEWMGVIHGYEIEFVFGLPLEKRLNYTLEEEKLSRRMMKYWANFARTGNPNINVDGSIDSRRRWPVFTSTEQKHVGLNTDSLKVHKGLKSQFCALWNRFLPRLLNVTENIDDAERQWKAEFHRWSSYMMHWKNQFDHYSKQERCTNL
# T1 sequence (P05067 672-713): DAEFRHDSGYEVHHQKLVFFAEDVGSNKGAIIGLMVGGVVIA
# T2 sequence (P81908 whole entry): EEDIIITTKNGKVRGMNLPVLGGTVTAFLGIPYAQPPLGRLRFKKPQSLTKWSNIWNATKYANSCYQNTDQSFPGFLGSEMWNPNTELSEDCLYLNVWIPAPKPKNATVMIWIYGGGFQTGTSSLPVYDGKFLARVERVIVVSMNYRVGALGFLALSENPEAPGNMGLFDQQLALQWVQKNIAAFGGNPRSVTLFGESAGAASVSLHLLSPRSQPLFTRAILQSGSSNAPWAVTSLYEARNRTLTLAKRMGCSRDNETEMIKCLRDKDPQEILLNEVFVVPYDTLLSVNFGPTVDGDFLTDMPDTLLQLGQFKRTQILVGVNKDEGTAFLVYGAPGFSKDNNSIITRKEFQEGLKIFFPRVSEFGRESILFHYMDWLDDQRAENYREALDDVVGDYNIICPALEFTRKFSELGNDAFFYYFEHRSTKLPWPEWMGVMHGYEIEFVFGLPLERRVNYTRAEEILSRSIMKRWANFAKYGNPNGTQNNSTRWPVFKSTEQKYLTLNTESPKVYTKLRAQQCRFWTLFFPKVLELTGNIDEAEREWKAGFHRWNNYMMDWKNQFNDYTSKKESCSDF
structure (smiles),measurement,setting,value
"COc1ccc2c(=O)c3cc4c(cc3oc2c1)-c1ccccc1OC4 [Compound 11b, 11-Methoxy-6H,8H-chromeno[3,4-b]xanthen-8-one]",IC50,[1]; [5],3.9 ± 0.9 µM
same,inhibition at 50 µM,[2],22 ± 2.7%
"COc1cc(OC)c2c(=O)c3cc4c(cc3oc2c1)-c1ccccc1OC4 [Compound 11e, 9,11-Dimethoxy-6H,8H-chromeno[3,4-b]xanthen-8-one]",inhibition at 50 µM,[2],36 ± 4.4%
same,IC50,[3],9.4 ± 0.2 µM
"CN(C)CCCN1c2ccccc2Sc2ccccc21 [Promazine, reference compound]",Papp at 2.5 h,[4],15.4 ± 0.91 ×10⁻⁶ cm/s
"CCn1cc(C(=O)O)c(=O)c2cc(F)c(N3CCNCC3)nc21 [Enoxacin, reference compound]",Papp at 2.5 h,[4]; pig,0.15 ± 0.15 ×10⁻⁶ cm/s
"COc1ccc2c(c1)-c1cc3oc4ccccc4c(=O)c3cc1CO2 [Compound 11f, 2-Methoxy-6H,8H-chromeno[3,4-b]xanthen-8-one]",IC50,[1],6.9 ± 1.5 µM
same,SI eeAChE,[1],0.88
same,inhibition at 50 µM,[2],36 ± 7.8%
same,IC50,[3],6.1 ± 0.5 µM
"O=c1c2ccccc2oc2cc3c(cc12)COc1ccccc1-3 [Compound 11a, 6H,8H-Chromeno[3,4-b]xanthen-8-one]",IC50,[1]; [5],2.1 ± 0.2 µM
same,inhibition at 50 µM,[2],15 ± 4.6%
"C#CCOc1ccccc1/C=C/c1cc(=O)c2ccc(OC)c(OC)c2o1 [Compound 7d, (E)-7,8-Dimethoxy-2-[2-(prop-2-yn-1-yloxy)styryl]-4H-chromen-4-one]",IC50,[1]; [5],2.4 ± 0.4 µM
same,inhibition at 50 µM,[2],28 ± 1.7%
"C#CCOc1ccccc1/C=C/c1cc(=O)c2c(OC)cc(OC)cc2o1 [Compound 7e, (E)-5,7-Dimethoxy-2-[2-(prop-2-yn-1-yloxy)styryl]-4H-chromen-4-one]",inhibition at 50 µM,[2],24 ± 1.7%
"O=c1c2ccccc2oc2cc3c(cc12)COc1ccc(Br)cc1-3 [Compound 11g, 2-Bromo-6H,8H-chromeno[3,4-b]xanthen-8-one]",inhibition at 50 µM,[2],36 ± 4.8%
"O=c1c2ccccc2oc2cc3c(cc12)COc1ccc(OC(F)(F)F)cc1-3 [Compound 11h, 2-(Trifluoromethoxy)-6H,8H-chromeno[3,4-b]xanthen-8-one]",IC50,[1],4 ± 1.2 µM
same,SI eeAChE,[1],1.55
same,inhibition at 50 µM,[2],41 ± 6.4%
same,IC50,[3],6.2 ± 0.7 µM
"CN1C(C(=O)Nc2ccccn2)=C(O)c2ccccc2S1(=O)=O [Piroxicam, reference compound]",Papp at 2.5 h,[4]; pig,0.19 ± 0.02 ×10⁻⁶ cm/s
"COc1ccc2c(=O)c3cc4c(cc3oc2c1OC)-c1ccccc1OC4 [Compound 11d, 11,12-Dimethoxy-6H,8H-chromeno[3,4-b]xanthen-8-one]",inhibition at 50 µM,[2],40 ± 6.4%
same,IC50,[3],7.1 ± 0.1 µM
"COc1ccc2c(=O)c3cc4c(cc3oc2c1)-c1cc(OC(F)(F)F)ccc1OC4 [Compound 11p, 11-Methoxy-2-(trifluoromethoxy)-6H,8H-chromeno[3,4-b]xanthen-8-one]",inhibition at 50 µM,[2],29 ± 7.6%
"O=c1c2ccccc2oc2cc3c(cc12)COc1ccc(Cl)cc1-3 [Compound 11j, 2-Chloro-6H,8H-chromeno[3,4-b]xanthen-8-one]",inhibition at 50 µM,[2],45 ± 7.4%
"COc1ccc(C#CCOc2ccccc2/C=C/c2cc(=O)c3ccccc3o2)cc1 [Compound 7n, (E)-2-(2-{[3-(4-Methoxyphenyl)prop-2-yn-1-yl]oxy}styryl)-4H-chromen-4-one]",inhibition at 50 µM,[2],34 ± 3.3%
C#CCOc1ccc2ccccc2c1/C=C/c1cc(=O)c2ccccc2o1 [Compound 8a],inhibition at 50 µM,[2],47 ± 3.9%
"CNCCCN1c2ccccc2CCc2ccccc21 [Desipramine, reference compound]",Papp at 2.5 h,[4]; pig,15.6 ± 1.78 ×10⁻⁶ cm/s
"COc1ccc2c(c1)-c1cc3oc4cccc(OC)c4c(=O)c3cc1CO2 [Compound 11m, 2,9-Dimethoxy-6H,8H-chromeno[3,4-b]xanthen-8-one]",inhibition at 50 µM,[2],30 ± 6.6%
same,IC50,[3],7.3 ± 0.4 µM
"C#CCOc1ccc(OC)cc1/C=C/c1cc(=O)c2ccccc2o1 [Compound 7f, (E)-2-[5-Methoxy-2-(prop-2-yn-1-yloxy)styryl]-4H-chromen-4-one]",inhibition at 50 µM,[2],15 ± 2.7%
"Cc1ccc(C#CCOc2ccccc2/C=C/c2cc(=O)c3ccccc3o2)cc1 [Compound 7o, (E)-2-(2-{[3-(4-methylphenyl)prop-2-yn-1-yl]oxy}styryl)-4H-chromen-4-one]",IC50,[1]; [5],2.9 ± 0.5 µM
same,inhibition at 50 µM,[2],37 ± 2%
"C#CCOc1ccc(Cl)cc1/C=C/c1cc(=O)c2ccc(OC)cc2o1 [Compound 7v, (E)-2-[5-Chloro-2-(prop-2-yn-1-yloxy)styryl]-7-methoxy-4H-chromen-4-one]",inhibition at 50 µM,[2],17 ± 2%
"C#CCOc1ccccc1/C=C/c1cc(=O)c2ccccc2o1 [Compound 7a, (E)-2-[2-(Prop-2-yn-1-yloxy)styryl]-4H-chromen-4-one]",IC50,[1]; [5],9.5 ± 0.3 µM
same,inhibition at 50 µM,[2],38 ± 6.2%
"COc1ccc2c(c1)-c1cc3oc4cc(OC)ccc4c(=O)c3cc1CO2 [Compound 11l, 2,11-Dimethoxy-6H,8H-chromeno[3,4-b]xanthen-8-one]",IC50,[1],4.8 ± 0.5 µM
same,SI eeAChE,[1],1.88
same,inhibition at 50 µM,[2],40 ± 5.1%
same,IC50,[3],9 ± 0.5 µM
O=c1c2ccccc2oc2cc3c(cc12)COc1ccc2ccccc2c1-3 [Compound 12a],inhibition at 50 µM,[2],43 ± 3.9%

# Reference: PMC12818745 (ACS Chemical Neuroscience, 2025)
